According to article PMC7873477, “Fermentative Production of L-2-Hydroxyglutarate by Engineered Corynebacterium glutamicum via Pathway Extension of L-Lysine Biosynthesis” (Frontiers in Bioengineering and Biotechnology, 2021):

Experiments:
CsiD (HEGluA) = target: T1, CsiD (HEGluA) (Escherichia coli, UniProt P76621); test: L-2HG formation by engineered C. glutamicum, HPLC of supernatant; format: cell-based, Corynebacterium glutamicum; details: whole cells, endogenously formed glutarate; Fe(II) and 2-oxoglutarate dependent; 96 h
T1 construct: gene glaH; untagged, from pVWEx1-ldcC-csiD(Ec) in C. glutamicum GSLA2G; whole-cell production
T1 sequence (P76621 1-325): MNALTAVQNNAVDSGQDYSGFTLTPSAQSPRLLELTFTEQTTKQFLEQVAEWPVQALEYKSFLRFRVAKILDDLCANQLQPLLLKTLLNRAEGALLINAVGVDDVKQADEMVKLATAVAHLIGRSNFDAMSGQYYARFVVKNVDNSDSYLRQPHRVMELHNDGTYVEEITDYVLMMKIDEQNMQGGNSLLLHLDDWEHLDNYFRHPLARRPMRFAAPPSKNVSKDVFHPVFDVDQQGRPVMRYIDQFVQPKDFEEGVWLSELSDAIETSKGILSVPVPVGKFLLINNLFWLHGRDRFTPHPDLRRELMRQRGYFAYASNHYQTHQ

CsiD (HPGluA) = target: T2, CsiD (HPGluA) (Pseudomonas putida, UniProt Q88IU0); test: as above; format: cell-based; details: whole cells, endogenously formed glutarate; Fe(II) and 2-oxoglutarate dependent; 96 h
T2 construct: gene glaH; untagged, from pVWEx1-ldcC-csiD(Pp) in C. glutamicum GSLA2G; whole-cell production
T2 sequence (Q88IU0 1-325): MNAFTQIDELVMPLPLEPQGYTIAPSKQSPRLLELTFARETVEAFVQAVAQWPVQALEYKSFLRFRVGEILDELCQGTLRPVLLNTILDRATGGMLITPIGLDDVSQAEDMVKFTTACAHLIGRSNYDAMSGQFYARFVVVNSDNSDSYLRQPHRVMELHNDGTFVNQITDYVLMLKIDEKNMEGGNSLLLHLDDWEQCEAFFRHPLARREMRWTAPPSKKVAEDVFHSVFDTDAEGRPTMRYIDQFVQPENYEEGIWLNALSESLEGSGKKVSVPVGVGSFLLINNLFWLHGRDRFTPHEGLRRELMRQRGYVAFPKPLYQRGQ

With `O=C(O)CCCC(=O)O` [glutarate] the “L-2HG formation by engineered C. glutamicum, HPLC of supernatant” value (CsiD (HEGluA)) was “the three strains produced and secreted L-2HG” and the “L-2HG formation by engineered C. glutamicum, HPLC of supernatant” value (CsiD (HPGluA)) was “the three strains produced and secreted L-2HG”.
